Source: patent publication US9149540B2, “Polymer conjugate of folic acid or folic acid derivative” (Nippon Kayaku Kabushiki Kaisha, priority 2008, dated 2015)
Where “and” joins values, the source holds several entries; their conditions need not be identical. Equal values may be shown once.

Legend:
[1] = test system: rat collagen-induced arthritis model; assay: Anti-inflammatory evaluation using rat collagen-induced arthritis model (Test Example 3)
[2] = test system: rat collagen-induced arthritis model; assay: Anti-inflammatory evaluation 2 using rat collagen-induced arthritis model (Test Example 4); type: in vivo; conditions: 8th, 15th and 22nd day after sensitization
Description: The test was carried out in the same manner as in Test Example 3. […] The groups administered with 1.00 mg/kg (convert to dose of MTX) and 1.25 mg/kg (convert to dose of MTX) of MTX_G-40, and the group administered with 2.5 mg/kg of MTX were administered with the drug through the tail vein on the 1st day, 8th day, 15th day and 22nd day after sensitization.

[3] = test system: Mouse colon cancer Colon 26; assay: Antitumor effect on mouse colon cancer Colon 26-transplanted mouse; type: in vivo; conditions: for Relative tumor volume mean ± SD: 12th day after initiation of administration, day of initiation = 1.0; for suppression of tumor growth (in words) / dose dependence of tumor growth suppression (in words): single administration; for dose dependence of tumor growth suppression (in words): doses of Table 1
Description: Mouse colon cancer Colon 26 cells subcutaneously subcultured in a BALB/c mouse were prepared in the form of a block which measured about 2 mm on each side, and the block was subcutaneously transplanted on the dorsal part of a CDF1 mouse using a trocar. […] The tumor volume on the day of initiation of administration was taken as 1.0, and while taking the 12th day after the initiation of administration as the day of determination, the relative tumor volume of each administered group was determined. The dose in the compounds of the present invention is converted to that of MTX.

[4] = 15 mg/kg/day tail vein, 5 successive days (total 75 mg/kg)
[5] = once 25 mg/kg in terms of MTX, tail vein
[6] = once 25 mg/kg in terms of MTX, tail vein, 25 mg/kg
[7] = once 50 mg/kg in terms of MTX, tail vein

CN(Cc1cnc2nc(N)nc(N)c2n1)c1ccc(C(=O)N[C@@H](CCC(=O)O)C(=O)O)cc1 [MTX, methotrexate, reference compound]
anti-inflammatory effect, arthritis score of left footpad (FIG. 2) ([1]; 2.5 mg/kg tail vein on 1st and 8th day after sensitization): no anti-inflammatory effects were observed | anti-inflammatory effect, arthritis score of left footpad (FIG. 3) ([2]; 2.5 mg/kg tail vein on 1st): delayed the time of onset of inflammation as compared with the control group | antitumor effect (in words) ([3]; 15 mg/kg for 5 successive days): an antitumor effect was not observed | Toxicity (death/n) [3, 4]: 0/3 | Relative tumor volume mean ± SD [3, 4]: 12.2 and 12.2 ± 8.1 | death of toxicity (in words) ([3]; 20 mg/kg for 5 successive days): all of the animals died of toxicity | Toxicity (death/n) ([3]; 20 mg/kg/day tail vein, 5 successive days (total 100 mg/kg)): 3/3

PEG-Asp40(α-Tyramine-MTX)-Ac [MTX_A-40]
anti-inflammatory effect, arthritis score of left footpad (FIG. 2) ([1]; 2.5 mg/kg on 1st day, or 1.25 mg/kg on 1st and 8th day after sensitization, in terms of MTX, tail vein): delayed the time of onset of inflammation | Toxicity (death/n) [3, 5]: 0/3 | Relative tumor volume mean ± SD [3, 6]: 6.8 and 6.8 ± 0.7 | death of toxicity (in words) ([3]; once 50 mg/kg in terms of MTX): one animal died of toxicity | Toxicity (death/n) [3, 7]: 1/3 | Relative tumor volume mean ± SD ([3]; once 50 mg/kg in terms of MTX, tail vein, 50 mg/kg): 4.8 and 4.8 ± 2.8 | suppression of tumor growth (in words) [3]: strongly suppress the growth of tumor with a single administration | dose dependence of tumor growth suppression (in words) [3]: tumor growth is suppressed in a manner dependent on the amount of administration

PEG-Asp40(γ-Tyramine-MTX)-Ac [MTX_G-40]
anti-inflammatory effect, arthritis score of left footpad (FIG. 3) ([2]; 1.00 mg/kg (dose of MTX) tail vein on 1st): further delayed the time of onset of inflammation compared to MTX | anti-inflammatory effect, arthritis score of left footpad (FIG. 3) ([2]; 1.25 mg/kg (dose of MTX) tail vein on 1st): completely suppressed the onset of inflammation for the 28 days of monitoring

PEG-Asp44(γ-Tyramine-MTX)-Ac [MTX_G-44]
Toxicity (death/n) ([3]; once 12.5 mg/kg in terms of MTX, tail vein): 0/3 | Relative tumor volume mean ± SD ([3]; once 12.5 mg/kg in terms of MTX, tail vein, 12.5 mg/kg): 8.2 and 8.2 ± 1.0 | death of toxicity (in words) ([3]; once 25 mg/kg in terms of MTX): one animal died of toxicity | Toxicity (death/n) [3, 5]: 1/3 | Relative tumor volume mean ± SD [3, 6]: 2.3 and 2.3 ± 1.1 | Toxicity (death/n) [3, 7]: 1/3 | Relative tumor volume mean ± SD [3, 7]: 0.4 ± 0.1 | suppression of tumor growth (in words) [3]: strongly suppress the growth of tumor with a single administration | dose dependence of tumor growth suppression (in words) [3]: tumor growth is suppressed in a manner dependent on the amount of administration
